Results reported in the NIST ThermoML archive (doi:10.1021/je100851w).

Assay: xn = mol fraction of the nth substance listed
Details: Vibrating tube method

S [hydrogen sulfide] + CCC
Details | mass density [kg/m3]
263.11 K, 8 kPa, Gas, x1 = 0.2227 | 0.1
263.11 K, 159 kPa, Gas, x1 = 0.2227 | 3.1
263.11 K, 298 kPa, Gas, x1 = 0.2227 | 6.1
263.11 K, 438 kPa, Gas, x1 = 0.2227 | 9.1
263.11 K, 707 kPa, Liquid, x1 = 0.2227 | 571.2
263.11 K, 2357 kPa, Liquid, x1 = 0.2227 | 574.3
263.11 K, 4057 kPa, Liquid, x1 = 0.2227 | 577.3
263.11 K, 5814 kPa, Liquid, x1 = 0.2227 | 580.3
263.11 K, 7697 kPa, Liquid, x1 = 0.2227 | 583.3
263.11 K, 9735 kPa, Liquid, x1 = 0.2227 | 586.4
263.11 K, 11879 kPa, Liquid, x1 = 0.2227 | 589.5
263.11 K, 14087 kPa, Liquid, x1 = 0.2227 | 592.6
263.11 K, 16300 kPa, Liquid, x1 = 0.2227 | 595.6
263.11 K, 18708 kPa, Liquid, x1 = 0.2227 | 598.6
263.11 K, 21118 kPa, Liquid, x1 = 0.2227 | 601.6
263.11 K, 23736 kPa, Liquid, x1 = 0.2227 | 604.6
263.11 K, 26466 kPa, Liquid, x1 = 0.2227 | 607.7
263.11 K, 29282 kPa, Liquid, x1 = 0.2227 | 610.8
263.11 K, 32290 kPa, Liquid, x1 = 0.2227 | 613.9
263.11 K, 35311 kPa, Liquid, x1 = 0.2227 | 616.9
263.11 K, 38486 kPa, Liquid, x1 = 0.2227 | 620
263.11 K, 41881 kPa, Liquid, x1 = 0.2227 | 623.1
268.09 K, 9 kPa, Gas, x1 = 0.2691 | 0.2
268.09 K, 180 kPa, Gas, x1 = 0.2691 | 3.5
268.09 K, 335 kPa, Gas, x1 = 0.2691 | 6.7
268.09 K, 476 kPa, Gas, x1 = 0.2691 | 9.7
268.09 K, 818 kPa, Liquid, x1 = 0.2691 | 570
268.09 K, 2369 kPa, Liquid, x1 = 0.2691 | 573.1
268.09 K, 3999 kPa, Liquid, x1 = 0.2691 | 576.3
268.09 K, 5608 kPa, Liquid, x1 = 0.2691 | 579.3
268.09 K, 7451 kPa, Liquid, x1 = 0.2691 | 582.5
268.09 K, 9258 kPa, Liquid, x1 = 0.2691 | 585.5
268.09 K, 11262 kPa, Liquid, x1 = 0.2691 | 588.7
268.09 K, 13236 kPa, Liquid, x1 = 0.2691 | 591.8
268.09 K, 15455 kPa, Liquid, x1 = 0.2691 | 595
268.09 K, 17739 kPa, Liquid, x1 = 0.2691 | 598.2
268.09 K, 20006 kPa, Liquid, x1 = 0.2691 | 601.2
268.09 K, 22487 kPa, Liquid, x1 = 0.2691 | 604.4
268.09 K, 24903 kPa, Liquid, x1 = 0.2691 | 607.4
268.09 K, 27518 kPa, Liquid, x1 = 0.2691 | 610.5
268.09 K, 30199 kPa, Liquid, x1 = 0.2691 | 613.6
268.09 K, 33045 kPa, Liquid, x1 = 0.2691 | 616.7
268.09 K, 36027 kPa, Liquid, x1 = 0.2691 | 619.8
268.09 K, 39139 kPa, Liquid, x1 = 0.2691 | 622.9
293.28 K, 14 kPa, Gas, x1 = 0.2227 | 0.2
293.28 K, 186 kPa, Gas, x1 = 0.2227 | 3.3
293.28 K, 350 kPa, Gas, x1 = 0.2227 | 6.3
293.28 K, 509 kPa, Gas, x1 = 0.2227 | 9.4
293.28 K, 665 kPa, Gas, x1 = 0.2227 | 12.6
293.28 K, 804 kPa, Gas, x1 = 0.2227 | 15.6
293.28 K, 932 kPa, Gas, x1 = 0.2227 | 18.7
293.28 K, 1050 kPa, Gas, x1 = 0.2227 | 21.9
293.28 K, 3770 kPa, Liquid, x1 = 0.2227 | 518.4
293.28 K, 4686 kPa, Liquid, x1 = 0.2227 | 521.6
293.28 K, 5576 kPa, Liquid, x1 = 0.2227 | 524.8
293.28 K, 6556 kPa, Liquid, x1 = 0.2227 | 527.8
293.28 K, 7610 kPa, Liquid, x1 = 0.2227 | 530.9
293.28 K, 8755 kPa, Liquid, x1 = 0.2227 | 534.1
293.28 K, 9941 kPa, Liquid, x1 = 0.2227 | 537.3
293.28 K, 11195 kPa, Liquid, x1 = 0.2227 | 540.5
293.28 K, 12466 kPa, Liquid, x1 = 0.2227 | 543.5
293.28 K, 13825 kPa, Liquid, x1 = 0.2227 | 546.6
293.28 K, 15156 kPa, Liquid, x1 = 0.2227 | 549.6
293.28 K, 16605 kPa, Liquid, x1 = 0.2227 | 552.6
293.28 K, 18128 kPa, Liquid, x1 = 0.2227 | 555.6
293.28 K, 19790 kPa, Liquid, x1 = 0.2227 | 558.8
293.28 K, 21473 kPa, Liquid, x1 = 0.2227 | 561.9
293.28 K, 23224 kPa, Liquid, x1 = 0.2227 | 564.9
293.28 K, 25127 kPa, Liquid, x1 = 0.2227 | 568.1
293.28 K, 27137 kPa, Liquid, x1 = 0.2227 | 571.3
293.28 K, 29216 kPa, Liquid, x1 = 0.2227 | 574.5
293.28 K, 31365 kPa, Liquid, x1 = 0.2227 | 577.6
293.28 K, 33453 kPa, Liquid, x1 = 0.2227 | 580.6
293.28 K, 35831 kPa, Liquid, x1 = 0.2227 | 583.8
313.12 K, 202 kPa, Gas, x1 = 0.2691 | 3.3
313.12 K, 382 kPa, Gas, x1 = 0.2691 | 6.4
313.12 K, 558 kPa, Gas, x1 = 0.2691 | 9.5
313.12 K, 722 kPa, Gas, x1 = 0.2691 | 12.6
313.12 K, 878 kPa, Gas, x1 = 0.2691 | 15.7
313.12 K, 1040 kPa, Gas, x1 = 0.2691 | 19
313.12 K, 1178 kPa, Gas, x1 = 0.2691 | 22
313.12 K, 1322 kPa, Gas, x1 = 0.2691 | 25.3
313.12 K, 1455 kPa, Gas, x1 = 0.2691 | 28.5
313.12 K, 1580 kPa, Gas, x1 = 0.2691 | 31.7
313.12 K, 1693 kPa, Gas, x1 = 0.2691 | 34.9
313.12 K, 1773 kPa, Gas, x1 = 0.2691 | 37.9
313.12 K, 2189 kPa, Liquid, x1 = 0.2691 | 491.5
313.12 K, 2787 kPa, Liquid, x1 = 0.2691 | 494.6
313.12 K, 3465 kPa, Liquid, x1 = 0.2691 | 498
313.12 K, 4173 kPa, Liquid, x1 = 0.2691 | 501.2
313.12 K, 4917 kPa, Liquid, x1 = 0.2691 | 504.4
313.12 K, 5710 kPa, Liquid, x1 = 0.2691 | 507.6
313.12 K, 6516 kPa, Liquid, x1 = 0.2691 | 510.6
313.12 K, 7434 kPa, Liquid, x1 = 0.2691 | 513.9
313.12 K, 8423 kPa, Liquid, x1 = 0.2691 | 517.3
313.12 K, 9421 kPa, Liquid, x1 = 0.2691 | 520.5
313.12 K, 10495 kPa, Liquid, x1 = 0.2691 | 523.7
313.12 K, 11669 kPa, Liquid, x1 = 0.2691 | 527.1
313.12 K, 12933 kPa, Liquid, x1 = 0.2691 | 530.5
313.12 K, 14205 kPa, Liquid, x1 = 0.2691 | 533.7
313.12 K, 15491 kPa, Liquid, x1 = 0.2691 | 536.9
313.12 K, 16847 kPa, Liquid, x1 = 0.2691 | 540
313.12 K, 18303 kPa, Liquid, x1 = 0.2691 | 543.3
313.12 K, 19787 kPa, Liquid, x1 = 0.2691 | 546.4
313.12 K, 21354 kPa, Liquid, x1 = 0.2691 | 549.6
313.12 K, 22903 kPa, Liquid, x1 = 0.2691 | 552.6
313.12 K, 24556 kPa, Liquid, x1 = 0.2691 | 555.7
313.12 K, 26292 kPa, Liquid, x1 = 0.2691 | 558.8
313.12 K, 28082 kPa, Liquid, x1 = 0.2691 | 561.8
313.12 K, 29973 kPa, Liquid, x1 = 0.2691 | 564.9
313.12 K, 32005 kPa, Liquid, x1 = 0.2691 | 568.1
313.12 K, 34062 kPa, Liquid, x1 = 0.2691 | 571.2
313.12 K, 36163 kPa, Liquid, x1 = 0.2691 | 574.3
313.12 K, 38383 kPa, Liquid, x1 = 0.2691 | 577.4
333.22 K, 50 kPa, Gas, x1 = 0.2227 | 0.8
333.22 K, 260 kPa, Gas, x1 = 0.2227 | 4.1
333.22 K, 470 kPa, Gas, x1 = 0.2227 | 7.5
333.22 K, 671 kPa, Gas, x1 = 0.2227 | 10.9
333.22 K, 838 kPa, Gas, x1 = 0.2227 | 13.9
333.22 K, 995 kPa, Gas, x1 = 0.2227 | 16.9
333.22 K, 1186 kPa, Gas, x1 = 0.2227 | 20.5
333.22 K, 1363 kPa, Gas, x1 = 0.2227 | 24.1
333.22 K, 1512 kPa, Gas, x1 = 0.2227 | 27.2
333.22 K, 1663 kPa, Gas, x1 = 0.2227 | 30.6
333.22 K, 1805 kPa, Gas, x1 = 0.2227 | 33.9
333.22 K, 1931 kPa, Gas, x1 = 0.2227 | 37
